We go through six compounds from patent publication US10111435B2, “Herbicidal compositions containing N-(1,3,4-oxadiazol-2-yl)-aryl carboxylic acid amides” (BAYER CROPSCIENCE AKTIENGESELLSCHAFT, priority 2013, dated 2018).

Holding throughout (assay type): in vivo
Assay [1] deals with Phalaris minor (PHAMI). Nature of the assay: greenhouse post-emergence herbicidal efficacy against PHAMI. Here is the method: (§1) All trials whose results are shown were conducted in a greenhouse by the methodology specified below. The effect of the inventive herbicidal compositions was examined on the following harmful plants 14 and 21 days after application:
(§2) Echinochloa crus-galli (ECHCG), Eleusine indica (ELEIN), Setaria viridis (SETVI), Amaranthus retroflexus (AMARE), Chenopodium album (CHEAL), Kochia scoparia (KCHSC), Solanum nigrum (SOLNI), Avena fatua (AVEFA), Bromus sterilis (BROST), Lolium multiflorum (LOLMU), Phalaris minor (PHAMI), Poa annua (POAAN), Galium aparine (GALAP), Matricaria inodora (MATIN) and Polygonum convolvulus (POLCO).
(§3) The harmful plant seeds were sown in pots (diameter 8 cm) with sandy loam soil and germinated under optimal conditions. The inventive herbicidal compositions or the active ingredients alone were applied post-emergence to the planted pots with a spray volume of 300 L/ha. The trial was conducted in a greenhouse under optimum growth conditions. The herbicidal effects were assessed visually by comparison of untreated and treated plants. The percentages mean: 0%=no effects, 100%=the plants die off completely).
(§4) The abbreviations mean: • a.i.=active ingredient • E^C=expected value according to Colby (E^C=A+B−A×B/100) • Diff: =difference (%) of measured value from expected value (%) (measured value minus expected value)
(§5) Assessment: • measured value E is greater than E^C:->synergism (+ diff.) • measured value E equals E^C:->additive effect • measured value E is smaller than E^C:->antagonism(− diff.)

For assay [2], the system named is Poa annua (POAAN). Nature of the assay: greenhouse post-emergence herbicidal efficacy against POAAN. Here is the method: as §1, §2, §3, §4, §5
Assay [3] has as its system Bromus sterilis (BROST). Nature of the assay: greenhouse post-emergence herbicidal efficacy against BROST. The protocol: as §1, §2, §3, §4, §5
In assay [4] the test system is Matricaria inodora (MATIN). Kind of assay: greenhouse post-emergence herbicidal efficacy against MATIN. The protocol: as §1, §2, §3, §4, §5
Assay [5] deals with Avena fatua (AVEFA). Kind of assay: greenhouse post-emergence herbicidal efficacy against AVEFA. The protocol:
as §1, §2, §3, §4, §5

Assay [6] relates to Polygonum convolvulus (POLCO). Kind of assay: greenhouse post-emergence herbicidal efficacy against POLCO. The protocol: as §1, §2, §3, §4, §5
The subject of assay [7] is Lolium multiflorum (LOLMU). Nature of the assay: greenhouse post-emergence herbicidal efficacy against LOLMU. The protocol: as §1, §2, §3, §4, §5
The test system of assay [8] is Galium aparine (GALAP). Nature of the assay: greenhouse post-emergence herbicidal efficacy against GALAP. Here is the method: as §1, §2, §3, §4, §5
Assay [9] concerns Chenopodium album (CHEAL). Kind of assay: greenhouse post-emergence herbicidal efficacy against CHEAL. The settings on record: 21 days after application; 50 g of a.i./ha. The protocol: as §1, §2
as §3, with “completely). The percentages are used to calculate interactions between individual treatments and combination treatments according to S. R. Colby, Weeds 15, pages 20 to 22 (1967).” for “completely).”
as §4, §5

Assay [10] relates to Kochia scoparia (KCHSC). Nature of the assay: greenhouse post-emergence herbicidal efficacy against KCHSC. Here is the method: as §1, §2
as §3, with “completely). The percentages are used to calculate interactions between individual treatments and combination treatments according to S. R. Colby, Weeds 15, pages 20 to 22 (1967).” for “completely).”
as §4, §5

In assay [11] the test system is Eleusine indica (ELEIN). Kind of assay: greenhouse post-emergence herbicidal efficacy against ELEIN. The following applies: Eleusine indica, post-emergence, 504 h, read-out: Efficacy. Here is the method: as §1, §2
as §3, with “completely). The percentages are used to calculate interactions between individual treatments and combination treatments according to S. R. Colby, Weeds 15, pages 20 to 22 (1967).” for “completely).”
as §4, §5

[12] abbreviates: 14 days after application, g of a.i./ha: A1-57 12.5, aclonifen 200.
The mark [13] stands for this setting: 14 days after application, g of a.i./ha: A1-57 12.5, aclonifen 800.
Where [14] appears, read: 14 days after application, g of a.i./ha: A1-57 50, aclonifen 200.
Where [15] appears, read: 21 days after application, g of a.i./ha: A1-57 12.5, aclonifen 200.
The mark [16] stands for this setting: 21 days after application, g of a.i./ha: A1-57 12.5, aclonifen 800.
[17] abbreviates: 14 days after application, g of a.i./ha: A1-57 50, aclonifen 800.
[18] abbreviates: 21 days after application, g of a.i./ha: A1-57 50, aclonifen 800.
Where [19] appears, read: 14 days after application, 25 g of a.i./ha.
The mark [20] stands for this setting: 14 days after application, 100 g of a.i./ha.
Where [21] appears, read: 21 days after application, g of a.i./ha: A1-55 2.5, glufosinate-ammonium 25.
[22] abbreviates: 21 days after application, g of a.i./ha: A1-55 2.5, glufosinate-ammonium 100.
The mark [23] stands for this setting: 21 days after application, g of a.i./ha: A1-55 10, glufosinate-ammonium 25.
Where [24] appears, read: 21 days after application, g of a.i./ha: A1-55 10, glufosinate-ammonium 100.
[25] abbreviates: 14 days after application, 0.5 g of a.i./ha.
Setting [26] is: 14 days after application, 2 g of a.i./ha.
Setting [27] is: 21 days after application, g of a.i./ha: A1-34 50, iodosulfuron-methyl-sodium 2.
The mark [28] stands for this setting: 21 days after application, g of a.i./ha: A1-34 200, iodosulfuron-methyl-sodium 2.
Where [29] appears, read: 21 days after application, g of a.i./ha: A1-34 50, iodosulfuron-methyl-sodium 0.5.
Setting [30] is: 14 days after application, 2.5 g of a.i./ha.
[31] abbreviates: 14 days after application, 10 g of a.i./ha.
[32] abbreviates: 21 days after application, g of a.i./ha: A1-13 2.5, mesosulfuron-methyl 2.5.
Setting [33] is: 21 days after application, g of a.i./ha: A1-13 2.5, mesosulfuron-methyl 10.
Where [34] appears, read: 21 days after application, g of a.i./ha: A1-13 10, mesosulfuron-methyl 10.
Setting [35] is: 14 days after application, 5 g of a.i./ha.
[36] abbreviates: 14 days after application, 20 g of a.i./ha.
[37] abbreviates: 21 days after application, g of a.i./ha: A1-3 20, pinoxaden 5.
Setting [38] is: 21 days after application, g of a.i./ha: A1-3 20, pinoxaden 20.
The mark [39] stands for this setting: 21 days after application, g of a.i./ha: A1-3 5, pinoxaden 20.

As for `Nc1c([N+](=O)[O-])ccc(Oc2ccccc2)c1Cl` [aclonifen], the Efficacy in assay [1] (setting [12]) turned out to be 0%; in assay [1] (setting [13]), 40%; in [1] (setting [14]) it was 0%; in assay [1] (setting [15]), 0%; in assay [1] (setting [16]), 15%; in assay [2] (setting [12]), 0%. Moreover, the Efficacy was determined as 30% in assay [2] (setting [13]); 0% in [2] (setting [14]); 30% in [2] (setting [17]); 10% in assay [2] (setting [16]); 0% in assay [2] (21 days after application, g of a.i./ha: A1-57 50, aclonifen 200); 10% in assay [2] (setting [18]). Besides, the Efficacy in assay [3] (setting [12]), in [3] (setting [13]), in assay [3] (setting [17]), in assay [3] (setting [16]), in assay [3] (setting [18]) and in assay [4] (setting [12]) was 0% in each case. Further, the Efficacy in assay [4] (setting [13]) was determined as 0%; in assay [4] (setting [17]) it was 0%; in [4] (setting [18]), 0%; in assay [5] (14 days after application, 200 g of a.i./ha) it was 0%; in assay [5] (14 days after application, 800 g of a.i./ha), 0%; in assay [5] (setting [12]), 0%. Moreover, the Efficacy in [5] (setting [16]) is given as 0%; in assay [6] (setting [12]), 0%; in assay [6] (setting [13]), 10%; in [6] (setting [15]), 0%; in assay [7] (setting [13]), 0%; in assay [7] (setting [17]), 0%. Moreover, the Efficacy in assay [8] (setting [12]), in assay [8] (setting [14]) and in assay [8] (setting [18]) was 20% each time.

As to `CP(=O)(O)CCC(N)C(=O)O` (stereo not drawn) [glufosinate-ammonium], the Efficacy in [1] (setting [19]) came out at 0%; in assay [1] (setting [20]) it was 15%; in assay [1] (setting [21]) it was 0%; in assay [1] (setting [22]) it was 10%; in assay [1] (setting [23]), 0%; in [1] (setting [24]), 10%. Further, the Efficacy in assay [2] (setting [20]) was found to be 0%; in [2] (setting [22]), 5%; in [2] (setting [24]), 5%; in [3] (setting [20]), 15%; in [3] (setting [22]), 15%; in [3] (setting [23]), 0%. Also, the Efficacy in assay [4] (setting [19]) is 0%; in [4] (setting [20]), 30%; in assay [4] (setting [21]) it was 0%; in assay [4] (setting [22]), 15%; in assay [4] (setting [23]) it was 0%; in assay [4] (setting [24]) it was 15%. Moreover, the Efficacy in assay [5] (setting [19]) is given as 0%; in [5] (setting [20]) it was 25%; in assay [5] (setting [22]), 20%; in [5] (setting [24]), 20%; in assay [6] (setting [19]), 0%; in assay [6] (setting [20]) it was 25%. The Efficacy in [6] (setting [23]) came out at 0%; in [6] (setting [24]), 5%; in assay [7] (setting [19]) it was 0%; in assay [7] (setting [20]), 25%; in assay [7] (setting [22]) it was 15%; in assay [7] (setting [24]) it was 15%. Moreover, the Efficacy in [8] (setting [19]) and in assay [8] (setting [23]) was 0% throughout.

On to `O=C(O)CNCP(=O)(O)O` [glyphosate], for which the Efficacy in assay [9] was found to be 30%; in [10] (14 days after application, 50 g of a.i./ha), 30%; in assay [10] (21 days after application, 50 g of a.i./ha) it was 10%; in assay [10] (21 days after application, 200 g of a.i./ha), 30%. Also, in assay [11], the pest or weed control at 50 g/ha is 0%.

As for `COC(=O)c1ccc(I)cc1S(=O)(=O)[N-]C(=O)Nc1nc(C)nc(OC)n1.[Na+]` [iodosulfuron-methyl-sodium], the Efficacy in assay [1] (setting [25]) is listed as 10%; in assay [2] (setting [25]), 0%; in [2] (setting [26]), 20%; in [3] (setting [26]) it was 15%; in assay [3] (setting [27]), 0%; in assay [3] (setting [28]) it was 0%. Moreover, the Efficacy in assay [4] (setting [29]) is on record as 70%; in assay [5] (setting [28]) it was 5%; in [6] (setting [25]), 15%; in [6] (setting [26]) it was 30%; in assay [6] (setting [29]), 0%; in [6] (setting [27]), 0%. For the same compound, the Efficacy in assay [7] (setting [25]) is listed as 0%; in assay [7] (setting [26]) it was 30%; in [8] (setting [25]), 30%; in assay [8] (setting [29]), 0%; in assay [8] (setting [28]) it was 25%.

As for `COC(=O)c1ccc(CNS(C)(=O)=O)cc1S(=O)(=O)NC(=O)Nc1nc(OC)cc(OC)n1` [mesosulfuron-methyl], the Efficacy in [1] (setting [30]) is on record as 0%; in assay [1] (setting [31]), 5%; in [1] (setting [32]), 0%; in assay [1] (setting [33]), 5%; in [1] (setting [34]) it was 5%; in assay [2] (setting [30]), 15%. For the same compound, the Efficacy in assay [2] (setting [31]) is 40%; in [2] (setting [33]), 40%; in assay [3] (setting [32]), 0%; in assay [3] (setting [33]), 0%; in assay [3] (setting [34]) it was 0%; in assay [4] (setting [30]), 0%. Also, the Efficacy stood at 0% in assay [4] (setting [31]); 5% in assay [5] (setting [31]); 0% in [5] (setting [33]); 0% in assay [5] (setting [34]); 0% in [6] (setting [33]); 0% in assay [6] (setting [34]). The Efficacy in assay [7] (setting [34]) is listed as 15%; in assay [8] (setting [30]), 30%; in assay [8] (setting [31]), 30%.

On to `CCc1cc(C)cc(CC)c1-c1c(OC(=O)C(C)(C)C)n2n(c1=O)CCOCC2` [pinoxaden], for which the Efficacy in [1] (setting [35]) amounted to 10%; in [1] (setting [36]), 50%; in assay [1] (setting [37]) it was 10%; in assay [1] (setting [38]), 20%; in assay [2] (setting [35]) it was 0%; in [2] (setting [36]) it was 0%. Also, the Efficacy in assay [2] (setting [39]) was 0%; in assay [2] (setting [38]), 0%; in assay [3] (setting [35]) it was 0%; in [3] (setting [36]), 10%; in [4] (setting [36]), 0%; in assay [5] (setting [35]) it was 0%. Besides, the Efficacy in [5] (setting [36]) is 20%; in [6] (setting [35]), 0%; in [6] (setting [36]), 0%; in assay [6] (setting [37]) it was 0%; in assay [6] (setting [38]), 0%; in assay [7] (setting [36]), 85%. Also, the Efficacy in assay [7] (setting [39]) is given as 80%; in [7] (setting [37]) it was 30%; in assay [8] (setting [36]) it was 0%; in [8] (setting [39]), 0%; in [8] (setting [37]), 0%; in assay [8] (setting [38]), 0%.
